The text below walks through data of patent publication US11369569B2, “Target-specific delivery of therapeutic agents” (University of Virginia Patent Foundation, priority 2015, dated 2022).

Where two headings read alike, the source gives them in different places.

One experiment concerns the target T1, VEGFR2 (Mus musculus, UniProt P35918).
T1 construct: from tissue; host or cells: endothelium of infarct/border zone in mouse heart (in vivo)
The experiment is classed as in vivo. The settings on record: for Vessel volume fraction (VVF) in infarct region: day 7 post-MI.

The subject of experiment [1] is cell types of interest in the infarct/border zone. Description: Immunofluorescence of heart sections to identify cell types bound by phage clones. It is filed as in vivo, mice. The note with it: immunostaining. The method, then:
Following ex vivo imaging of heart and liver, hearts from the mice under study were fixed in 4% paraformaldehyde for 1 h followed by equilibration in 30% sucrose for overnight at 4° C. The hearts were washed 3-4 times in DPBS (Dulbecco's phosphate-buffered saline) and placed in OCT medium (Sakura Finetek USA, Inc, Torrance, Calif.) and frozen by placing over liquid N2 vapors. The embedded tissue samples cut into 5-7 μm sections using a cryostat (Leica Microsystems Inc, Buffalo Grove, Ill.), for subsequent imaging with a fluorescence microscope fitted with appropriate filter sets (Olympus BX41). Cell types of interest in the infarct/border zone were identified by immunohistochemistry using the following antibodies: rat anti-mouse CD 31 at 1:250 dilution (endothelial marker)(BD Biosciences, San Jose, Calif.), rat anti-mouse myoglobin at 1:200 (cardiomyocyte marker) (Santa Cruz Biotechnology Inc, Dallas, Tex.), anti-alpha-smooth muscle actin (aSMA) conjugated with Alexa Fluor 488 at 1:200 (myofibroblast marker) (Sigma Chemical Co., St. Louis, Mo.), and rabbit anti-mouse c-Kit at 1:150 (cardiac progenitor cell marker) (Santa Cruz Biotechnology Inc, Dallas, Tex.). […] Appropriate secondary antibodies were employed as needed to identify the primary antibodies:goat anti-rat Alexa Fluor 488 (1:250) and goat anti-rabbit Alexa Fluor 488 (1:250) (Abcam, Cambridge, Mass.). Binding of I-1 and B-50 phage clones to cardiomyocytes and c-Kit+ cells was determined by flow cytometry. The RL-14 cardiomyocyte cell line (ATCC) was used to test the binding of fluorescently labeled I-1 phage (VivoTag 645) and myocardial infarct derived cardiac and bone marrow cells to test the binding of fluorescently labeled B-50 phage (VivoTag 680).

A further experiment concerns the target T2, CRIP-2 (Mus musculus, UniProt Q9DCT8).
T2 construct: host or cells: myocardium and endothelium of the heart
T2 sequence (Q9DCT8 1-208): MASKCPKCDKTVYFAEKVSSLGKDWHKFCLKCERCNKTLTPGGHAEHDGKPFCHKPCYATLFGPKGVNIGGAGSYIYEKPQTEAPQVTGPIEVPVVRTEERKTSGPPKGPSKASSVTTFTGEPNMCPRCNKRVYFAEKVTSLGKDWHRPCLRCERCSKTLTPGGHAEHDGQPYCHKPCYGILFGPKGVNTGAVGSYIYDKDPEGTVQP
Also noted: reference not given here. The settings on record: via binding to CRIP-2 in myocardium and endothelium; cited from earlier work.

Experiment [2] deals with cell types of interest in the infarct/border zone. Description: Immunofluorescence co-localization of peptide-conjugated liposomes with cell markers (JACoP, Mander's overlap). The experiment is classed as in vivo, mice. The note with it: post-MI hearts.
The next experiment has as its target T3, EF fragment of Hornerin (Homo sapiens, UniProt Q86YZ3).
T3 construct: Different versions of the hornerin fragments containing EF domains were created; made in house
T3 sequence (Q86YZ3 1-81 limits assumed): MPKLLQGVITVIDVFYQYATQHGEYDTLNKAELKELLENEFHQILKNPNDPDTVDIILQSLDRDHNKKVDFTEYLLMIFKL
The experiment is described as follows: Biolayer interferometry of B-40 binding to hornerin EF fragments. The settings on record: biotinylated B-40 peptide on streptavidin sensors. The procedure:
FIG. 31 depicts biolayer interferometry to determine B-40 liposome binding to EF fragment of Hornerin. Using Fortebio octect system, B-40 liposomes binding to EF fragment was carried out. Streptavidin sensors were coated with Biotinylated EF fragments and their interaction with no peptide, I-1 and B-40 liposomes was tested.
FIG. 33 depicts biolayer interferometry to determine B-40 liposome binding to EF domains. Using Fortebio octect system, B-40 peptide binding to different EF fragments was carried out. Streptavidin sensors were coated with biotinylated B-40 peptide and its interaction with different fragments containing EF domains was carried out.

T1 sequence (P35918 20-1345): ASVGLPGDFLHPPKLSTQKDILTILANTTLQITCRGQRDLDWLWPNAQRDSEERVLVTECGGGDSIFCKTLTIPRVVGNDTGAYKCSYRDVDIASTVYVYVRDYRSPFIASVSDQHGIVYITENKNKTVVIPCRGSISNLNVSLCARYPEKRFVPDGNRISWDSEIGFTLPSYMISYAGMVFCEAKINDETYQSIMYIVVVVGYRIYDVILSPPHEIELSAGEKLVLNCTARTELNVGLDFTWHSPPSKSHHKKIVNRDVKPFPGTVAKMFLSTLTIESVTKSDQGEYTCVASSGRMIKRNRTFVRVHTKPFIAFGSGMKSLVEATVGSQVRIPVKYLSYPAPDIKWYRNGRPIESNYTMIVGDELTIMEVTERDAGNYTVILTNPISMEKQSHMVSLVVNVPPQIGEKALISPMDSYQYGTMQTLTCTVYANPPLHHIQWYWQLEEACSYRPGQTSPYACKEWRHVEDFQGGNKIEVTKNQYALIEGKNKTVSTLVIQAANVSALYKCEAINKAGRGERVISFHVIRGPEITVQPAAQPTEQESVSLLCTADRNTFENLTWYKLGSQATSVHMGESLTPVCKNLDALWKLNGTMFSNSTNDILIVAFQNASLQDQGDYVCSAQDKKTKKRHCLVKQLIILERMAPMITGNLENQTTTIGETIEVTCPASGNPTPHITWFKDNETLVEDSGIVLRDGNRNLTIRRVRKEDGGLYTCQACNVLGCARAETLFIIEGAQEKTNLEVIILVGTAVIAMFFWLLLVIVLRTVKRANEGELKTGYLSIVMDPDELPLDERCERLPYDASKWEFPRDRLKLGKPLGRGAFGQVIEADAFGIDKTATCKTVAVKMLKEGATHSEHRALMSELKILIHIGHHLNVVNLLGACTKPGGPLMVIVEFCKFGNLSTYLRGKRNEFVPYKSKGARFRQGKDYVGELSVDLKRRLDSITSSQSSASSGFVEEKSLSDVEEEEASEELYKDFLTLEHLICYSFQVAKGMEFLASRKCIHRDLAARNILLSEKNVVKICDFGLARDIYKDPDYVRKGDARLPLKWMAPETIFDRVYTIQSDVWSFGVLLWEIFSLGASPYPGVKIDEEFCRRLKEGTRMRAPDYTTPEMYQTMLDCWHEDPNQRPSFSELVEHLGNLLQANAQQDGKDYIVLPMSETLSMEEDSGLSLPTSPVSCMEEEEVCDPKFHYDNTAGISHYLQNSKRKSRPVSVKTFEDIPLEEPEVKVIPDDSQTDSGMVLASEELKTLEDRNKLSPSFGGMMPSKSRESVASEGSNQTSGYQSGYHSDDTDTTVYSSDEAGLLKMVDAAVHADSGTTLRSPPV

With `Clc1ccc(Nc2nnc(Cc3ccncc3)c3ccccc23)cc1` [PTK787], the results for the “Percent effective in reducing neovessel formation” value at VEGFR2 (20 mg/kg-d) and at VEGFR2 (100 mg/kg-d) were 18% and 65%, respectively. The “Vessel volume fraction (VVF) in infarct region” value was 0.052 on VEGFR2 (20 mg/kg-d); 0.021 at VEGFR2 (100 mg/kg-d); 0.022 on VEGFR2 (100 mg/kg-d, listed as free PTK787). Moreover, on VEGFR2 (1000 nonparametric bootstrap data sets), the “Median (ED50, bootstrap)” value is listed as 63 mg/kg-d. Moreover, the “Estimated (ED50)” value on VEGFR2 (Imax model fit from vessel volume fraction) is reported as 63 mg/kg-d.

Regarding AMRPPLN (listed as Homo sapiens) [B-42], the “Cell type / component for which phage clone is specific” value (shortened to “Cell type / component”) in experiment [1] is “cardiomyocytes”.

With ATMSRAP (listed as Homo sapiens) [B-47], the “Cell type / component” value in experiment [1] was “endothelial cells”.

Consider CRPPR [CRPPR-peptide], for which the “Targeting to the heart” value on CRIP-2 is 47 fold.

Take ESRQVTP (listed as Homo sapiens) [B-43]: the “Cell type / component” value in experiment [1] is on record as “extracellular matrix”.

For the compound GLSQLQR (listed as Homo sapiens) [B-50], the “Cell type / component” value in experiment [1] is given as “c-Kit+ cells”. In addition, in experiment [2], the “Cell type for which peptide conjugated liposomes are specific” value is given as “c-Kit+ cells”.

As to “NCP: intentionally off-target peptide (Panc-27) previously shown to be specific for pancreatic cancer cells (KTLLPTP) [reference compound]”, the “Cell type for which peptide conjugated liposomes are specific” value in experiment [2] was “non-specifically taken up by macrophages”.

With RPPALAP (listed as Homo sapiens) [B-29], in experiment [1], the “Cell type / component” value was “myofibroblasts”. Further, in experiment [2], the “Cell type for which peptide conjugated liposomes are specific” value is recorded as “myofibroblasts”.

On to SDTWSSR (listed as Homo sapiens) [B-7], for which, in experiment [1], the “Cell type / component” value is recorded as “myofibroblasts”.

SHSNARS (listed as Homo sapiens) [B-27]: the “Cell type / component” value in experiment [1] is “c-Kit+ cells”.

In the case of SLLNRMP (listed as Homo sapiens) [B-40], in experiment [1], the “Cell type / component” value is listed as “endothelial cells”. For the same compound, the “Cell type for which peptide conjugated liposomes are specific” value in experiment [2] is recorded as “endothelial cells”. Moreover, the “Binding to fragments containing EF domains” value in the experiment with EF fragment of Hornerin was “possible binding partner”.

TALPRLN (listed as Homo sapiens) [I-1]: the “Cell type / component” value in experiment [1] was “cardiomyocytes”. Further, the “Cell type for which peptide conjugated liposomes are specific” value in experiment [2] is on record as “cardiomyocytes”.

TMQHDG (listed as Homo sapiens) [B-11]: the “Cell type / component” value in experiment [1] is recorded as “extracellular matrix”.
